Some results are limits rather than exact numbers.

The values that follow come from patent publication US20070197512A1, “Carboxylic Acid Compounds and Use Thereof” (Japan Tobacco Inc., priority 2006, published 2007).

This assay addresses T1, human URAT1 (Homo sapiens, UniProt Q96S37).
T1 construct: Human URAT1 full length cDNA was subcloned to expression vector pcDNA3.1; expressed in transfected cells; host or cells: HEK293 cells (pcDNA3.1, geneticin-selected)
T1 sequence (Q96S37 1-553): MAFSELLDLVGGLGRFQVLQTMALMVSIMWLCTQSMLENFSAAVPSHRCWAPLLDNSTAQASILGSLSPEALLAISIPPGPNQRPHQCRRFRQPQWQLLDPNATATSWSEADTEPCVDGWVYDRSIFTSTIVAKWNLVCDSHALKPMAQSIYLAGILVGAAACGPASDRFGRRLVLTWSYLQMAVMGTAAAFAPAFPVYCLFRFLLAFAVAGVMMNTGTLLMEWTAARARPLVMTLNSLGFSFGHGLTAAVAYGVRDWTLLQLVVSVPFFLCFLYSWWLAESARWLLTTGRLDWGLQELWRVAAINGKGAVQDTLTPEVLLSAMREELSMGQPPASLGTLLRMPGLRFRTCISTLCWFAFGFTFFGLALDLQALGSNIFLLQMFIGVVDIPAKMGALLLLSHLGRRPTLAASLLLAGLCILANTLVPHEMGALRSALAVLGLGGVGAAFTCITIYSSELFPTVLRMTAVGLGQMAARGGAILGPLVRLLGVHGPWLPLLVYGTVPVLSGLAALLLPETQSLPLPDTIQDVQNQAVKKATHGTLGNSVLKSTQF
The experiment in a line: Uric acid transport inhibitory test using human URAT1-expressing cells. It is filed as cell-based. The following applies: human URAT1-expressing HEK293 cells, 14C-uric acid 50 μM, uptake 5 min, room temperature; read-out: hURAT1 IC50. The text has this: Experimental Example 1 Uric Acid Transport Inhibitory Test Using Human URAT1-Expressing Cells
Human URAT1 full length cDNA was subcloned to expression vector pcDNA3.1 and human URAT1 gene was transfected into human embryonic kidney derived cell line (HEK293 cells) by liposome method using Lipofectamine2000. Simultaneously, HEK293 cells transfected with expression vector pcDNA3.1 alone (hereinafter mock cells) were also produced. HEK293 cells expressing human URAT1 gene or mock cells were selected with geneticin resistance as an index. The functional expression of human URAT1 gene was confirmed by a method similar to the following method, using ^14C-uric acid transport into the cells as an index.
Human URAT1-expressing HEK293 cells or mock cells were cultured in Dulbecco's modified Eagle's MEM medium (high glucose) containing 10% fetal bovine serum, 0.5 mg/mL geneticin sulfate, 100 units/mL penicillin and 100 μg/mL streptomycin under the conditions of 37° C. and 5% CO2 in an incubator. The cells were plated in a 96 well plate (poly-D-Lysine coated) at 1×10^5 cells/well and the following uric acid transport inhibitory test was performed 24 hr later. This test was performed at room temperature.
After the medium was removed by aspiration from each well, the cells were washed once with Hank's Balanced Salt Solution (HBSS) and preincubated with HBSS (100 μL/well) for 5 min. HBSS was aspirated and an assay buffer (wherein NaCl in the above-mentioned HBSS had been substituted with Na-gluconate) containing various concentrations of the Example compound and a radioactive ligand (14C-uric acid; final concentration 50 μM) was added to each well at 50 μL/well and an uptake reaction was carried out for 5 min. After the reaction, the cells were washed twice with ice-cold HBSS (150 μL/well), and Microscinti™ 20 (PerkinElmer) was added at 50 μL/well. The cells were lysed by stirring and the radioactivity of each well was measured by a liquid scintillation counter (TOP COUNT, Packard).
The uric acid transport rate (%) of the Example compound at each concentration was calculated relative to the radioactivity (difference in radioactivity between human URAT1-expressing HEK293 cells and mock cells without addition of Example compound (DMSO addition)) showing URAT1 specific uric acid transport as 100%, and the concentration (IC50) of the Example compound necessary for inhibiting the uric acid transport rate by 50% was determined. In Table 24-Table 27, “+++” means IC50 value of less than 300 nM, “++” means IC50 value of 300 nM to less than 3000 nM, and “+” means IC50 value of not less than 3000 nM.
Broadly, the IC50 is the concentration needed to halve the response being measured. On to `CC(C)c1cccc2c1OC(C(C)C)CN2C(=O)C(=O)O` (centres unmarked) [Example 29, (2,8-diisopropyl-2,3-dihydrobenzo[1,4]oxazin-4-yl)oxoacetic acid], for which the 50% inhibitory concentration (IC50) was ≥ 3 µM.

Regarding `CC(C)C1Oc2ccc(C(C)(C)C)cc2N(CCC(=O)O)C1=O` (centres unmarked) [Example 88, 3-(6-tert-butyl-2-isopropyl-3-oxo-2,3-dihydrobenzo[1,4]oxazin-4-yl)propionic acid], the concentration for half-maximal inhibition (IC50) fell in the range of 0.3 to 3 µM.

`CC(C)C1Oc2c(Cl)cc(Cl)cc2N(CCC(=O)O)C1=O` (centres unmarked) [Example 80, 3-(6,8-dichloro-2-isopropyl-3-oxo-2,3-dihydrobenzo[1,4]oxazin-4-yl)propionic acid]: the half-inhibitory concentration (IC50) was < 0.3 µM.

Take `Cc1cc(C)c2c(c1)N(C(=O)/C=C/C(=O)O)CCO2` [Example 85, (E)-4-(6,8-dimethyl-2,3-dihydrobenzo[1,4]oxazin-4-yl)-4-oxo-2-butenoic acid]: the 50% inhibitory concentration (IC50) is ≥ 3 µM.

With `CC(C)C1Oc2cc([N+](=O)[O-])ccc2N(CCC(=O)O)C1=O` (centres unmarked) [Example 95, 3-(2-isopropyl-7-nitro-3-oxo-2,3-dihydrobenzo[1,4]oxazin-4-yl)propionic acid], the IC50 was ≥ 3 µM.

As for `CC(C)c1cccc2c1OC(C(C)C)C(=O)N2Cc1ccccc1C(=O)O` (centres unmarked) [Example 41, 2-[(2,8-diisopropyl-3-oxo-2,3-dihydrobenzo[1,4]oxazin-4-yl)methyl]benzoic acid], the IC50 is ≥ 3 µM.

As for `CC(C)c1cccc2c1O[C@@H](C(C)C)C(=S)N2CC(=O)O` [Example 7, ((S)-2,8-diisopropyl-3-thioxo-2,3-dihydrobenzo[1,4]oxazin-4-yl)acetic acid], the IC50 fell in the range of 0.3 to 3 µM.

Regarding `CCC1CN(C(=O)/C=C/C(=O)O)c2cccc(C(C)C)c2O1` (centres unmarked) [Example 67, (E)-4-(2-ethyl-8-isopropyl-2,3-dihydrobenzo[1,4]oxazin-4-yl)-4-oxo-2-butenoic acid], the IC50 lay within 0.3 to 3 µM.

In the case of `CC(C)C1Oc2ccc(C(F)(F)F)cc2N(CCC(=O)O)C1=O` (centres unmarked) [Example 97, 3-(2-isopropyl-3-oxo-6-trifluoromethyl-2,3-dihydrobenzo[1,4]oxazin-4-yl)propionic acid], the 50% inhibitory concentration (IC50) lay in the range of 0.3 to 3 µM.

Take `O=C(O)/C=C/C(=O)N1CC(c2ccccc2)Oc2ccc(Cl)cc21` (centres unmarked) [Example 71, (E)-4-(6-chloro-2-phenyl-2,3-dihydrobenzo[1,4]oxazin-4-yl)-4-oxo-2-butenoic acid]: the 50% inhibitory concentration (IC50) was ≥ 3 µM.

For `O=C(O)/C=C\C(=O)N1CCOc2ccccc21` [Example 25, (Z)-4-(2,3-dihydrobenzo[1,4]oxazin-4-yl)-4-oxo-2-butenoic acid], the half-inhibitory concentration (IC50) is ≥ 3 µM.

On to `O=C(O)CCCCC(=O)N1CCOc2ccccc21` [Example 27, 6-(2,3-dihydrobenzo[1,4]oxazin-4-yl)-6-oxohexanoic acid], for which the half-maximal inhibitory concentration (IC50) was ≥ 3 µM.

Turning to `CC(C)c1cccc2c1OC(c1ccccc1)CN2C(=O)/C=C/C(=O)O` (centres unmarked) [Example 45, (E)-4-(8-isopropyl-2-phenyl-2,3-dihydrobenzo[1,4]oxazin-4-yl)-4-oxo-2-butenoic acid], the half-maximal inhibitory concentration (IC50) was 0.3 to 3 µM.

Consider `CCC1Oc2c(C(C)C)cccc2N(CC(=O)O)C1=O` (centres unmarked) [Example 39, (2-ethyl-8-isopropyl-3-oxo-2,3-dihydrobenzo[1,4]oxazin-4-yl)acetic acid], for which the 50% inhibitory concentration (IC50) is ≥ 3 µM.

Consider `CC(C)c1cccc2c1OC(C)(C)C(=O)N2CCC(=O)O` [Example 33, 3-(8-isopropyl-2,2-dimethyl-3-oxo-2,3-dihydrobenzo[1,4]oxazin-4-yl)propionic acid], for which the half-inhibitory concentration (IC50) is ≥ 3 µM.

For `O=C(O)CN1C(=O)CSc2ccccc21` [Example 4, (3-oxo-2,3-dihydrobenzo[1,4]thiazin-4-yl)acetic acid], the concentration for half-maximal inhibition (IC50) is ≥ 3 µM.

Consider `CC(C)C1Oc2c(Br)cccc2N(CCC(=O)O)C1=O` (centres unmarked) [Example 51, 3-(8-bromo-2-isopropyl-3-oxo-2,3-dihydrobenzo[1,4]oxazin-4-yl)propionic acid], for which the 50% inhibitory concentration (IC50) was in the range of 0.3 to 3 µM.

For the compound `CC(C)c1cccc2c1OC(C(C)C)C(=O)N2CC(C)(C)C(=O)O` (centres unmarked) [Example 42, 3-(2,8-diisopropyl-3-oxo-2,3-dihydrobenzo[1,4]oxazin-4-yl)-2,2-dimethylpropionic acid], the half-maximal inhibitory concentration (IC50) lay in the range of 0.3 to 3 µM.

Take `CC(C)(C)c1cccc2c1OC(c1ccccc1)C(=O)N2CCC(=O)O` (centres unmarked) [Example 49, 3-(8-tert-butyl-3-oxo-2-phenyl-2,3-dihydrobenzo[1,4]oxazin-4-yl)propionic acid]: the IC50 was in the range of 0.3 to 3 µM.

With `Cc1cccc2c1OC(c1ccccc1)C(=O)N2CCC(=O)O` (centres unmarked) [Example 47, 3-(8-methyl-3-oxo-2-phenyl-2,3-dihydrobenzo[1,4]oxazin-4-yl)propionic acid], the 50% inhibitory concentration (IC50) is 0.3 to 3 µM.

As for `Cc1ccc2c(c1)N(CCC(=O)O)C(=O)C(c1ccccc1)O2` (centres unmarked) [Example 75, 3-(6-methyl-3-oxo-2-phenyl-2,3-dihydrobenzo[1,4]oxazin-4-yl)propionic acid], the IC50 is 0.3 to 3 µM.

Consider `Cc1cc(C)c2c(c1)N(CCC(=O)O)C(=O)CO2` [Example 82, 3-(6,8-dimethyl-3-oxo-2,3-dihydrobenzo[1,4]oxazin-4-yl)propionic acid], for which the IC50 is ≥ 3 µM.

For `Cc1cc(C)c2c(c1)N(CCC(=O)O)C(=O)C(CC(C)C)O2` (centres unmarked) [Example 90, 3-(2-isobutyl-6,8-dimethyl-3-oxo-2,3-dihydrobenzo[1,4]oxazin-4-yl)propionic acid], the half-maximal inhibitory concentration (IC50) was < 0.3 µM.

For `CC(C)C1Oc2ccccc2N(CC(=O)O)C1=S` (centres unmarked) [Example 13, (2-isopropyl-3-thioxo-2,3-dihydrobenzo[1,4]oxazin-4-yl)acetic acid], the IC50 was ≥ 3 µM.

As to `CC(C)c1cccc2c1OC(C)(C)C(=O)N2CC(=O)O` [Example 34, (8-isopropyl-2,2-dimethyl-3-oxo-2,3-dihydrobenzo[1,4]oxazin-4-yl)acetic acid], the IC50 is ≥ 3 µM.

Turning to `COc1cc(C)c2c(c1)N(CCC(=O)O)C(=O)C(C(C)C)O2` (centres unmarked) [Example 104, 3-(2-isopropyl-6-methoxy-8-methyl-3-oxo-2,3-dihydrobenzo[1,4]oxazin-4-yl)propionic acid], the IC50 is < 0.3 µM.

As to `O=C(O)/C=C/C(=O)N1CC(c2ccccc2)Oc2cc(Cl)ccc21` (centres unmarked) [Example 70, (E)-4-(7-chloro-2-phenyl-2,3-dihydrobenzo[1,4]oxazin-4-yl)-4-oxo-2-butenoic acid], the IC50 was ≥ 3 µM.

For `CC(C)C1Oc2cc(Cl)ccc2N(CCC(=O)O)C1=O` (centres unmarked) [Example 62, 3-(7-chloro-2-isopropyl-3-oxo-2,3-dihydrobenzo[1,4]oxazin-4-yl)propionic acid], the IC50 was 0.3 to 3 µM.

Take `CC(C)C1Oc2ccccc2N(CCC(=O)O)C1=O` (centres unmarked) [Example 32, 3-(2-isopropyl-3-oxo-2,3-dihydrobenzo[1,4]oxazin-4-yl)propionic acid]: the 50% inhibitory concentration (IC50) was ≥ 3 µM.

Turning to `O=C(O)CCN1C(=O)C(c2ccccc2)Oc2c(Br)cccc21` (centres unmarked) [Example 66, 3-(8-bromo-3-oxo-2-phenyl-2,3-dihydrobenzo[1,4]oxazin-4-yl)propionic acid], the half-maximal inhibitory concentration (IC50) was in the range of 0.3 to 3 µM.

As for `Cc1cc(Cl)c2c(c1)N(CCC(=O)O)C(=O)C(C(C)C)O2` (centres unmarked) [Example 98, 3-(8-chloro-2-isopropyl-6-methyl-3-oxo-2,3-dihydrobenzo[1,4]oxazin-4-yl)propionic acid], the IC50 is < 0.3 µM.

Consider `CC(C)C1Oc2c(C3CCCCC3)cccc2N(CCC(=O)O)C1=O` (centres unmarked) [Example 50, 3-(8-cyclohexyl-2-isopropyl-3-oxo-2,3-dihydrobenzo[1,4]oxazin-4-yl)propionic acid], for which the half-maximal inhibitory concentration (IC50) was ≥ 3 µM.
